# Results from US8445510B2, “Fused bicyclic kinase inhibitors” (OSI Pharmaceuticals, LLC, priority 2011, dated 2013).
# pIC50: −log10 of the molar value.
# Experiments:
# Type in all cases: cell-based
# [1] = system: Karpas-299 cells; test: Karpas-299 cell proliferation assay (CellTiter-Glo); conditions: Homo sapiens, 72 h; Karpas-299 cell line (NPM-ALK); 3 days incubation; at least duplicate experiments; read-out: Prolif. IC50
# Method: The effect of inhibitors on the proliferation of Karpas-299 cells (DSMZ no. ACC 31) was determined using the following protocol. Karpas-299 cells were plated in 96-well white tissue culture treated plates (Corning 3917) in growth medium (RPMI, 10% FCS) at a density of 5000 cells/well in a total volume of 135 μL and incubated at 37° C., 5% CO2, 95% humidity overnight. The following day, one-tenth volume of a 10× concentration of compounds was added to the wells in an 8-point dilution series. Compounds were serially diluted (1:4) in DMSO from a 10 mM stock solution prior to dilution in growth media to the 10× working concentrations (5% DMSO). Final concentration of DMSO in compound-treated wells was 0.5%. Control wells containing growth media or growth media/0.5% DMSO were included in all test plates. […] Once the compounds were added to the cells, plates were incubated for 3 days at 37° C., 5% CO2 at 95% humidity. After 72 hours, all cells and reagents were equilibrated to room temperature and 15 μL of CellTiter-Glo reagent (Promega # G7573) was added to each well. Plates were shaken on a platform for 10 minutes at room temperature prior to reading luminescence. The value of the signal of the control wells was set as 100% growth and growth inhibition was expressed as percent of control. IC50 values were determined from the percent of control data using a standard four-parameter curve fit equation.
# (§1) The IC50 values of exemplary compounds of the present invention determined in a cell proliferation assay using the Karpas-299 cell line according to the procedures described herein in at least duplicate experiments are abbreviated as follows and are shown in Table 5: A, IC50≦0.05 μM; B, 0.05 μM<IC50≦0.2 μM; C, 0.2 μM<IC50≦1 μM; D, IC50>1 μM; ND, not determined. The Example # of Table 5 corresponds to the compound example number as illustrated in the Examples section.
# The Karpas-299 cell line has a t(2; 5) chromosomal translocation and expresses the NPM-ALK fusion protein, resulting in constitutively active ALK. […] Ther. 6(12):3314-22 (2007)]. With this “ALK-driven” cell line, the cell proliferation IC50 values can thus be used as surrogate for the p-ALK cell mechanistic IC50 values.
# [2] = system: MKN45 cells; test: MKN45 cell proliferation assay (CellTiter-Glo); conditions: Homo sapiens, MKN-45, 72 h; MKN45 cell line; 3 days incubation; at least duplicate experiments; read-out: Prolif. IC50
# Method: The effect of inhibitors on the proliferation of MKN45 cells was determined using the following protocol. MKN45 cells were plated in Corning 3917 96-well white tissue culture treated plates in growth medium (RPMI, 10% FCS) at a density of 5000 cells/well in a total volume of 135 μL and incubated at 37° C., 5% CO2, 95% humidity overnight. The following day, one-tenth volume of a 10× concentration of compounds was added to the wells in an 8-point dilution series. The dilution series was composed of an initial 1:5 dilution of a 10 mM stock of compound in DMSO, followed by serial 1:4 dilutions in DMSO, then a 1:20 dilution in growth medium prior to the 1:10 dilution into the cell plate. […] The typical dilution range is 10 μM to 0.6 nM. Once the compound was added to the cells, plates were incubated for 3 days at 37° C., 5% CO2 at 95% humidity. On the third day, after allowing all cells and reagents to come to room temperature, 25 μL of CellTiter-Glo reagent (Promega #G7573) was added to the wells. Plates were shaken on a platform for 10 minutes prior to reading luminescence for 0.1 seconds. The signal of the control wells was taken as 100% growth and growth inhibition was expressed as percent of control. IC50 values were determined from the percent of control data using a standard four-parameter model.
# as §1, with “the MKN45” for “the Karpas-299”, “Table 2:” for “Table 5:”, “Table 2” for “Table 5”
# Treatment of this cell line with a selective c-MET inhibitor led to induction of apoptosis and inhibition of proliferation, whereas non-MET-amplified cell lines were not affected [Smolen et al., Proc. Natl. Acad. Sci. USA, 103(7):2316-2321 (2006)]. This cell line is thus “driven” by c-MET, and antiproliferative effects correlate very well with the inhibition of c-MET phosphorylation so that the cell proliferation IC50, values can be used as surrogate for the c-MET cell mechanistic IC50, values. Under the assay conditions described herein, the IC50 values correlate nearly 1:1.
# [3] = biological target: T1, RON (Homo sapiens, UniProt Q04912); test: sfRON cell mechanistic assay (HeLa), phosphorylated RON ELISA; conditions: HeLa cells transfected with sfRON; inhibition of phosphorylated RON; four hours incubation; at least duplicate experiments; read-out: sfRON mech IC50
# T1 sequence (Q04912 913-1400): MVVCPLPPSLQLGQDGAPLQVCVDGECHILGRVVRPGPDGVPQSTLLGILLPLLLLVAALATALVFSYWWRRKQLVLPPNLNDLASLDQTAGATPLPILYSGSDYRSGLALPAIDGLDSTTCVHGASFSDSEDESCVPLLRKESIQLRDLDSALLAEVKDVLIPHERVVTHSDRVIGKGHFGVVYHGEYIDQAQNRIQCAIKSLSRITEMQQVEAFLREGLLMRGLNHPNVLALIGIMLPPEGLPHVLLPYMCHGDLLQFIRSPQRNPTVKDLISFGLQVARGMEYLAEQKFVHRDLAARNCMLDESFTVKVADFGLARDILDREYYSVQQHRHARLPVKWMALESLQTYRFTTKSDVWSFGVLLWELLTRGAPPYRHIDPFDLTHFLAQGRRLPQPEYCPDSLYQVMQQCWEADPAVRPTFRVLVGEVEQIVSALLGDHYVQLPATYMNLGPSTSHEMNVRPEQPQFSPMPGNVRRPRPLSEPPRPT
# Method: The cellular activity of the compounds of the present invention against RON may be determined by the following procedure. HeLa cells were plated in Falcon 3072 96-well plates in growth media (DMEM, 10% FBS, 1% L-glutamine) at a density of 10000 cells/well and incubated at 37° C., 5% CO2 overnight. The following day, cells were transfected with 0.2 μg sfRON-pcDNA plasmid DNA with 0.5 μL Lipofectamine-2000 per well in the presence of 50 μL OPTI-MEM, incubated at 37° C., 5% CO2 overnight. Costar 3915 96-well assay plates were coated with rabbit Anti-RON antibody at 2.0 μg/mL, sealed, and incubated overnight at 4° C. On the third day, coated plates were washed with PBS and blocked with 3% BSA. For the sfRON transfected cells, one-tenth volume of a 10× concentration of compounds was added to the wells in a 6-point dilution series. The dilution series was composed of an initial 1:5 dilution of a 10 mM DMSO stock solution of compound in DMSO, followed by a 1:10 dilution in growth media, for a final DMSO concentration on cells of 0.5%. Control wells were treated with 0.5% DMSO. The typical range of dilution was 10 μM to 3 nM. Once compound was added to the cells, plates were incubated for four hours at 37° C., 5% CO2. Plates were then washed in PBS, and lysed in triton-based lysis buffer. Lysates were transferred to the blocked capture plates. The phosphorylated RON levels were measured by incubating with a Goat polyclonal antibody against phosphorylated RON ([pYpY1238/1239]) followed by an anti-Goat antibody conjugated to HRP. Signal was measured on a Wallac Victor plate reader with luminance. The DMSO signal of the control wells was defined as 100% and the percent of inhibition of phosphorylated RON was expressed as percent of control. IC50 values were determined from the percent of control data using a standard four-parameter model.
# The IC50 values of exemplary compounds of the present invention determined in a sfRON cell mechanistic assay using the HeLa cell line according to the procedures described herein in at least duplicate experiments are abbreviated as follows and are shown in Table 3: A, IC50≦0.2 μM; B, 0.2 μM<IC50≦1.0 μM; C, IC50>1 μM; ND, not determined. The Example # of Table 3 corresponds to the compound example number as illustrated in the Examples section.
Structure (SMILES),pIC50 [1],pIC50 [2],pIC50 [3]
"COc1ccc(F)c(Cl)c1[C@@H](C)c1c[nH]c2ncc(-c3c(C)nn([C@H]4CC[C@H](C(=O)O)CC4)c3C)cc12 [Example 25, trans-4-(4-{3-[(1S)-1-(2-Chloro-3-fluoro-6-methoxyphenyl)ethyl]-1H-pyrrolo[2,3-b]pyridin-5-yl}-3,5-dimethyl-1H-pyrazol-1-yl)cyclohexanecarboxylic acid]",≥ 7.30,,
"CCOC(=O)[C@H]1CC[C@H](n2nc(C)c(-c3cnc4[nH]cc([C@H](C)c5c(OC)ccc(F)c5Cl)c4c3)c2C)CC1 [Example 26, Ethyl trans-4-(4-{3-[(1S)-1-(2-chloro-3-fluoro-6-methoxyphenyl)ethyl]-1H-pyrrolo[2,3-b]pyridin-5-yl}-3,5-dimethyl-1H-pyrazol-1-yl)cyclohexanecarboxylate]",≥ 7.30,,
"COc1ccc(F)c(Cl)c1[C@@H](C)c1c[nH]c2ncc(-c3cn(C[C@H](O)CO)nc3C(F)(F)F)cc12 [Example 37, (2S)-3-[4-{3-[(1S)-1-(2-Chloro-3-fluoro-6-methoxyphenyl)ethyl]-1H-pyrrolo[2,3-b]pyridin-5-yl}-3-(trifluoromethyl)-1H-pyrazol-1-yl]propane-1,2-diol]",6.00 to 6.70,6.00 to 6.70,
"COc1ccc(F)c(Cl)c1[C@@H](C)c1c[nH]c2ncc(-c3cnn([C@H]4CC[C@@H](N5CCNCC5)CC4)c3C)cc12 [Example 56, 3-[(1S)-1-(2-Chloro-3-fluoro-6-methoxyphenyl)ethyl]-5-{5-methyl-1-[cis-4-(piperazin-1-yl)cyclohexyl]-1H-pyrazol-4-yl}-1H-pyrrolo[2,3-b]pyridine]",6.70 to 7.30,6.70 to 7.30,< 6.00
"Cc1c(-c2cnc3[nH]cc([C@@H](CF)c4c(Cl)ccc(F)c4Cl)c3c2)cnn1[C@H]1CC[C@H](O)CC1 [Example 117, trans-4-(4-{3-[(1R)-1-(2,6-dichloro-3-fluorophenyl)-2-fluoroethyl]-1H-pyrrolo[2,3-b]pyridin-5-yl}-5-methyl-1H-pyrazol-1-yl)cyclohexanol]",< 6.00,< 6.00,

# Now from value to compound:
pIC50 [1],pIC50 [2],pIC50 [3],Structure (SMILES)
6.00 to 6.70,6.70 to 7.30,,"COc1ccc(F)c(Cl)c1[C@@H](C)c1c[nH]c2ncc(-c3cnn(C[C@H](O)CO)c3C(F)(F)F)cc12 [Example 36, (2S)-3-[4-{3-[(1S)-1-(2-Chloro-3-fluoro-6-methoxyphenyl)ethyl]-1H-pyrrolo[2,3-b]pyridin-5-yl}-5-(trifluoromethyl)-1H-pyrazol-1-yl]propane-1,2-diol]"
< 6.00,6.70 to 7.30,< 6.00,"COc1ccc(F)c(Cl)c1[C@@H](C)c1c[nH]c2ncc(-c3cnn([C@H]4CC[C@H](O)CC4)c3C(F)(F)F)cc12 [Example 40, trans-4-[4-{3-[(1S)-1-(2-Chloro-3-fluoro-6-methoxyphenyl)ethyl]-1H-pyrrolo[2,3-b]pyridin-5-yl}-5-(trifluoromethyl)-1H-pyrazol-1-yl]cyclohexanol]"
≥ 7.30,≥ 7.30,,"[2H]c1[nH]c2ncc(-c3cnn([C@H]4CC[C@H](O)CC4)c3C)cc2c1[C@H](C)c1c(OC(F)F)ccc(F)c1Cl [Example 94, trans-4-{-4-[3-{(1S)-1-[2-Chloro-6-(difluoromethoxy)-3-fluorophenyl]ethyl}(2-^2H)-1H-pyrrolo[2,3-b]pyridin-5-yl]-5-methyl-1H-pyrazol-1-yl}cyclohexanol]"
6.00 to 6.70,6.00 to 6.70,,"[2H]c1[nH]c2ncc(-c3cnn([C@H]4CC[C@H](O)CC4)c3C)cc2c1[C@@H](C)c1c(OC(F)F)ccc(F)c1Cl [Example 95, trans-4-{-4-[3-{(1R)-1-[2-Chloro-6-(difluoromethoxy)-3-fluorophenyl]-ethyl}(2-^2H)-1H-pyrrolo[2,3-b]pyridin-5-yl]-5-methyl-1H-pyrazol-1-yl}cyclohexanol]"
,< 6.00,,"Cc1c(-c2cnc3[nH]cc([C@@H](C)c4c(OC(F)F)ccc(F)c4Cl)c3c2)cnn1[C@H]1CC[C@H](O)CC1 [Example 98, trans-4-[4-(3-{(1R)-1-[2-Chloro-6-(difluoromethoxy)-3-fluorophenyl]ethyl}-1H-pyrrolo[2,3-b]pyridin-5-yl)-5-methyl-1H-pyrazol-1-yl]cyclohexanol]"
